The record followed here is BindingDB's records for doi:10.1021/jm8011036 (Glaxosmithkline, 2008).

The target in the assay is Casein kinase I isoform alpha (Homo sapiens, UniProt P48729). In words: Binding affinity to human CK1alpha2.
Sequence of Casein kinase I isoform alpha (P48729 whole entry, canonical isoform): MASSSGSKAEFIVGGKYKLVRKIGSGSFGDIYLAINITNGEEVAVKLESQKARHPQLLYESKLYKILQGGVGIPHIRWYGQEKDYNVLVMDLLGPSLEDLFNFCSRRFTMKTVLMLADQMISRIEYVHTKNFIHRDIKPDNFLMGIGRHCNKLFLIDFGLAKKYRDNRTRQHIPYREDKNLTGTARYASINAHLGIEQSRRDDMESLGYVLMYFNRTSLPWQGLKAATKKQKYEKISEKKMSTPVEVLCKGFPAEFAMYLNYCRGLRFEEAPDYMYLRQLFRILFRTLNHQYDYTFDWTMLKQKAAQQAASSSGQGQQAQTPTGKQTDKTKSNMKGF

Take `CC(=O)c1c(-c2ccncc2)[nH]c(-c2ccncc2)c1C` [1-(4-methyl-2,5-di(pyridin-4-yl)-1H-pyrrol-3-yl)ethanone]: binding was characterised by a dissociation constant (Kd) of 225 nM.
